The source of these data is patent publication US11000627B2, “Treatment of implants with phosphonic acid compounds” (Nano Bridging Molecules SA, priority 2016, dated 2021).

Series [1] is described as follows: XPS phosphorus over metal ratio on Titanium grade 4 cylinders. The settings on record: 0.7 mM, Metal = Ti2p. It counts as physicochemical.
Description: XPS analyses were performed on an Axis Ultra spectrometer from Kratos (Kratos, Manchester, U.K.) equipped with a concentric hemispherical analyzer and using a monochromatized aluminum anode X-ray source (Al Kα1,2 1486.6 eV, full width at half maximum, fwhm=0.85 eV, 15 kV, 150 W). The samples were investigated under ultrahigh vacuum conditions: 10^−8-10^−7 Pa. Spectra were taken at a 90° takeoff angle with respect to the surface. A sample area of 300×700 μm^2 or 700×700 μm^2 was analyzed with a pass energy of 80.0 eV for survey scans. The spectrometer was calibrated by using Cu 2p3/2 (932.7 eV) and Au 4f7/2 (84.0 eV) signals. Surface sensitivity factors used to determine the atomic concentrations were those of the instrument. Spectra were peak fitted after background subtraction by assuming a Gaussian/Lorentzian (90-70/10-30) peak shape. All peaks between 0 eV to 1200 eV were inspected.
Two Titanium grade 4 cylinders (bulk composition atomic concentration Titanium 100%; length 6.0 mm, diameter 2.4 mm) were provided with a roughened surface, produced by sand blasting and acid etching according to industry standards. The cylinders were immersed in 6 ml of a 2% (v/v) aqueous solution of deconex 15 PF-x (which is a phosphate free, potassium hydroxide based standard cleaning agent). The solution was placed in an ultrasonic bath (output frequency 30 kHz) and sonicated at 65° C. for 15 min. The cylinders were removed from the cleaning agent solution and rinsed with water as follows: 2 times with 10 ml, swirling at room temperature; 4 times with 10 ml, sonicating for 2 min at 65° C.; 1 time with 10 ml, swirling at room temperature. The cylinders were then placed into 6 ml of a 0.7 mM aqueous solution of 1,1,3,3-propane tetraphosphonic acid. The solution was placed in the ultrasonic bath and sonicated at 65° C. for 15 min. The cylinders were rinsed with water as follows: 2 times with 10 ml, swirling at room temperature; 1 time with 10 ml, sonicating for 2 min at 65° C.; 1 time with 10 ml, swirling at room temperature. The cylinders were dried in a desiccator over P2O5 and under vacuum (ca 20 mbar) for at least 3 hours.
Two Titanium grade 4 cylinders (bulk composition atomic concentration Titanium 100%; length 6.0 mm, diameter 2.4 mm) were provided with a roughened surface, produced by sand blasting and acid etching according to industry standards. The cylinders were immersed in 6 ml of a 2% (v/v) aqueous solution of deconex 15 PF-x (which is a phosphate free, potassium hydroxide based standard cleaning agent). The solution was placed in an ultrasonic bath (output frequency 30 kHz) and sonicated at room temperature for 15 min. The cylinders were removed from the cleaning agent solution and rinsed with water as follows: 2 times with 10 ml, swirling at room temperature; 4 times with 10 ml, sonicating for 2 min at room temperature; 1 time with 10 ml, swirling at room temperature. The cylinders were then placed into 6 ml of a 0.7 mM aqueous solution of 1,1,3,3-propane tetraphosphonic acid. The solution was swirled thoroughly and left to stand at room temperature for 15 min. The cylinders were rinsed with water as follows: 2 times with 10 ml, swirling at room temperature; 1 time with 10 ml, sonicating for 2 min at room temperature; 1 time with 10 ml, swirling at room temperature. The cylinders were dried in a desiccator over P2O5 and under vacuum (ca 20 mbar) for at least 3 hours.
Series [2] is described as follows: XPS phosphorus over metal ratio (surface coverage) on Titanium grade 23 dental implants. It counts as physicochemical. The settings on record: sonicated 65° C. 10 min, Metal = Ti2p + Al2s + V2p. How it is done: A Titanium grade 23 dental implant (bulk composition atomic concentration Titanium 90%, Aluminum 6%, Vanadium 4%; length 11.0 mm, diameter 3.75 mm) was provided with a roughened surface, produced by sand blasting and acid etching according to industry standards. The dental implant was immersed in 40 ml of a 2% (v/v) aqueous solution of deconex 15 PF-x (which is a phosphate free, potassium hydroxide based standard cleaning agent). The solution was placed in an ultrasonic bath (output frequency 30 kHz) and sonicated at 65° C. for 30 min. The implant was removed from the cleaning agent solution and rinsed with water as follows: 2 times with 40 ml, swirling at room temperature; 4 times with 40 ml, sonicating for 2 min at 65° C.; 1 time with 40 ml, swirling at room temperature. The implant was then placed into 5 ml of a 0.7 mM aqueous solution of 1,1,3,3-propane tetraphosphonic acid. The solution was placed in the ultrasonic bath and sonicated at 65° C. for 10 min. The implant was rinsed with water as follows: 2 times with 10 ml, swirling at room temperature; 1 time with 10 ml, sonicating for 2 min at 65° C.; 1 time with 10 ml, swirling at room temperature. The dental implant was dried in a desiccator over P2O5 and under vacuum (ca 20 mbar) for at least 3 hours.
Ten Titanium grade 23 dental implants (bulk composition atomic concentration Titanium 90%, Aluminum 6%, Vanadium 4%; length 11.0 mm, diameter 3.75 mm) were provided with a roughened surface, produced by sand blasting and acid etching according to industry standards. The dental implants were immersed in 400 ml of a 2% (v/v) aqueous solution of deconex 15 PF-x (which is a phosphate free, potassium hydroxide based standard cleaning agent). The solution was placed in an ultrasonic bath (output frequency 30 kHz) and sonicated at 65° C. for 30 min. The implants were removed from the cleaning agent solution and rinsed with water as follows: 2 times with 400 ml, swirling at room temperature; 4 times with 400 ml, sonicating for 2 min at 65° C.; 1 time with 400 ml, swirling at room temperature. The implants were then placed one after the other into 5 ml of a 0.7 mM aqueous solution of 1,1,3,3-propane tetraphosphonic acid. The solution was placed in the ultrasonic bath and sonicated at 65° C. for 10 min. After the treatment with the phosphonic acid, each implant was rinsed with water as follows: 1 time with 10 ml, swirling at room temperature; 1 time with 10 ml, sonicating for 2 min at 65° C.; 1 time with 10 ml, swirling at room temperature. The dental implants were dried in a desiccator over P2O5 and under vacuum (ca 30 mbar) for at least 3 hours.
A Titanium grade 23 dental implant (bulk composition atomic concentration Titanium 90%, Aluminum 6%, Vanadium 4%; length 13.0 mm, diameter 3.75 mm) was provided with a roughened surface, produced by sand blasting and acid etching according to industry standards. The implant was immersed in 13 ml of a 0.7 mM aqueous solution of 1,1,3,3-propane tetraphosphonic acid. The solution was placed in an ultrasonic bath and sonicated at room temperature for 10 min. The implant was rinsed with water as follows: 1 time with 10 ml, swirling at room temperature; 2 times with 10 ml, sonicating for 1 min at room temperature. The dental implant was dried in a heating oven (ca 70° C.) for at least 1 hour. […]
Following the surface treatment with one phosphonic acid compound as described in Examples 1 to 7 the samples were analyzed by X-ray photoelectron spectroscopy (XPS). […]

Marks after values point to notes of the source that are not given here.

For `O=P(O)(O)C(CC(P(=O)(O)O)P(=O)(O)O)P(=O)(O)O` [1,1,3,3-propane tetraphosphonic acid], the Phosphorus/Metal is 0.24^b in series [1] (Phosphonic acid 5 min, sonicated 65° C.); 0.28^b in series [1] (Phosphonic acid 10 min, sonicated 65° C.); 0.30^b in series [1] (Phosphonic acid 30 min, sonicated 65° C.); 0.28^b in series [1] (Phosphonic acid 60 min, sonicated 65° C.); 0.22^b in series [1] (all steps sonicated at 40° C., 15 min); 0.26^b in series [1] (all steps sonicated at 50° C., 15 min). Besides, the Phosphorus/Metal is 0.25^b in series [1] (all steps sonicated at 60° C., 15 min); 0.25^b in series [1] (all steps sonicated at 70° C., 15 min); 0.27^b in series [1] (all steps sonicated at 80° C., 15 min); 0.27^b in series [1] (all steps sonicated at 90° C., 15 min); 0.36^b in series [1] (pre-treatment Deconex 15PF-x 5 min, sonicated 65° C. 15 min); 0.32^b in series [1] (pre-treatment Deconex 15PF-x 15 min, sonicated 65° C. 15 min). The Phosphorus/Metal in series [1] (pre-treatment Deconex 15PF-x 30 min, sonicated 65° C. 15 min) is on record as 0.32^b; in series [2] (0.7 mM), 0.19; in series [2] (2 mM) it was 0.18; in series [2] (3.5 mM), 0.17; in series [2] (5 mM), 0.18; in series [2] (7 mM), 0.18.
